Data as given in the supplement of paper PMC5908809.

Experiments:
[1] = test system: normal NK cells expanded with K562-aAPC; assay: drug sensitivity score (DSS) (DSS units); higher = more sensitive; extreme values may be limits of the assay; conditions: 72 h; IL-2 2.5 ng/mL
Procedure: (§1)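 Drug sensitivity and resistance testing on K562-aAPC-expanded normal NK cells: 5 concentrations (10-fold steps over a 10,000-fold range), 72 h at 37 °C, viability by CellTiter-Glo normalised to DMSO and benzethonium chloride controls; DSS from the fitted curve.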

[2] = test system: NK-92 (IL-2 2.5 ng/mL); assay: percent inhibition of viability; higher = more inhibition; conditions: 72 h
[3] = test system: KHYG-1 (IL-2 2.5 ng/mL); assay: as above; conditions: 72 h
[4] = test system: normal primary NK cells, pool 3 (3 donors) (IL-2 2.5 ng/mL); assay: as above; conditions: 72 h
[5] = test system: NKL (IL-2 2.5 ng/mL); assay: as above; conditions: 72 h
[6] = test system: IMC-1 (IL-2 20 ng/mL); assay: as above; conditions: 72 h
[7] = test system: normal primary NK cells, pool 2 (3 donors) (IL-2 2.5 ng/mL); assay: as above; conditions: 72 h
[8] = test system: normal primary NK cells, pool 1 (3 donors), resting (IL-2 0 ng/mL); assay: as above; conditions: 72 h
[9] = test system: normal primary NK cells, pool 1 (3 donors) (IL-2 2.5 ng/mL); assay: as above; conditions: 72 h
[10] = test system: DERL-7 (IL-2 2.5 ng/mL); assay: as above; conditions: 72 h
[11] = test system: SNK-6 (IL-2 2.5 ng/mL); assay: as above; conditions: 72 h
[12] = test system: YT (IL-2 2.5 ng/mL); assay: as above; conditions: 72 h
[13] = test system: NK-YS (IL-2 2.5 ng/mL); assay: as above; conditions: 72 h
[14] = test system: KAI3 (IL-2 2.5 ng/mL); assay: as above; conditions: 72 h
[15] = test system: NK-92 (IL-2 2.5 ng/mL); assay: drug sensitivity score (DSS) (DSS units); higher = more sensitive; extreme values may be limits of the assay; conditions: 72 h
[16] = test system: KHYG-1 (IL-2 2.5 ng/mL); assay: as above; conditions: 72 h
[17] = test system: normal primary NK cells, pool 3 (3 donors) (IL-2 2.5 ng/mL); assay: as above; conditions: 72 h
[18] = test system: NKL (IL-2 2.5 ng/mL); assay: as above; conditions: 72 h
[19] = test system: IMC-1 (IL-2 20 ng/mL); assay: as above; conditions: 72 h
[20] = test system: normal primary NK cells, pool 2 (3 donors) (IL-2 2.5 ng/mL); assay: as above; conditions: 72 h
[21] = test system: normal primary NK cells, pool 1 (3 donors), resting (IL-2 0 ng/mL); assay: as above; conditions: 72 h
[22] = test system: normal primary NK cells, pool 1 (3 donors) (IL-2 2.5 ng/mL); assay: as above; conditions: 72 h
[23] = test system: DERL-7 (IL-2 2.5 ng/mL); assay: as above; conditions: 72 h
[24] = test system: SNK-6 (IL-2 2.5 ng/mL); assay: as above; conditions: 72 h
[25] = test system: YT (IL-2 2.5 ng/mL); assay: as above; conditions: 72 h
[26] = test system: NK-YS (IL-2 2.5 ng/mL); assay: as above; conditions: 72 h
[27] = test system: KAI3 (IL-2 2.5 ng/mL); assay: as above; conditions: 72 h
[28] = test system: normal NK cells expanded with K562-aAPC; assay: percent inhibition of viability; higher = more inhibition; conditions: 72 h, IL-2 2.5 ng/mL
Procedure: as §1

Nc1ncn([C@H]2C[C@H](O)[C@@H](CO)O2)c(=O)n1 [Decitabine] (max concentration tested 10000 nM)
Conditions	drug sensitivity score
[1]	5.69
[15]	12.6
[16]	11.7
[17]	3.32
[18]	3.12
[19]	6.54
[20]	1.92
[21]	1.82
[22]	1.27
[23]	14.1
[24]	23.5
[25]	5.68
[26]	9.23
[27]	21

percent inhibition of viability [%]
Conditions	1 nM	10 nM	100 nM	1000 nM	10000 nM
[2]	14.1	7.13	28.5	42.4	81.5
[3]	4.42	1.27	13.6	51.4	89.8
[4]	-2.52	-0.43	2.61	5.08	47.6
[5]	0.73	9.17	7.62	27.4	15
[6]	6.19	9.72	18.9	18.9	49.6
[7]	-3.35	-1.69	-11.7	3	32.2
[8]	3.59	-12.2	2.07	-6.83	43.9
[9]	8.63	2.5	-2.22	-0.78	30.4
[10]	0.66	-1.23	21.1	60.8	92.3
[11]	3.81	14.8	64.3	70.1	78.8
[12]	9.12	6.63	10.1	24.2	47.4
[13]	2.7	4.69	16.5	38	64.8
[14]	10.1	26.4	51.8	58.8	73
[28]	3.63	6.61	11.9	21.8	56.1

O=C(c1ccc(OCCN2CCCCC2)cc1)c1c(-c2ccc(O)cc2)sc2cc(O)ccc12 [Raloxifene] (max concentration tested 10000 nM)
Conditions	drug sensitivity score
[1]	4.52
[15]	4.99
[16]	4.74
[17]	0.74
[18]	4.58
[19]	0
[20]	1.67
[21]	1.08
[22]	0.41
[23]	6.02
[24]	2.49
[25]	4.39
[26]	2.92
[27]	6.04

percent inhibition of viability [%]
Conditions	1 nM	10 nM	100 nM	1000 nM	10000 nM
[2]	1.94	6.91	-0.59	-1.98	92.6
[3]	-4.91	3.37	0.98	11	54.9
[4]	-5.87	-1.12	5.04	8.98	16.6
[5]	1.76	7.99	-6.69	11.2	52.2
[6]	0.84	1.43	3.84	8.59	10.4
[7]	-6.02	-3.78	1.06	2.77	29.1
[8]	2.49	-4.47	-6.62	-34	38.5
[9]	1.01	-6.07	1.09	-7.43	20.9
[10]	-6.41	2.29	1.8	13.7	68.8
[11]	-9.5	-3.4	-9.29	-36.4	67.1
[12]	-1.19	5.28	-0.98	1	77
[13]	0.85	-3.33	4.79	5.35	40.5
[14]	-6.87	-0.15	5.98	4.92	96.1
[28]	-3.9	-1.26	0.77	10.2	53.2

CS(=O)(=O)OCCCCOS(C)(=O)=O [Busulfan] (max concentration tested 100000 nM)
Conditions	drug sensitivity score
[1]	0.67
[15]	4.82
[16]	6.48
[17]	1.42
[18]	6.32
[19]	6.28
[20]	2.38
[21]	0
[22]	0
[23]	1.44
[24]	8.82
[25]	2.18
[26]	5.53
[27]	6.36

percent inhibition of viability [%]
Conditions	10 nM	100 nM	1000 nM	10000 nM	100000 nM
[2]	-12.9	1.55	8.88	-9.97	98.6
[3]	-5.97	2.86	-2.89	5.78	101
[4]	0.71	-2.78	10.5	-3.81	35.4
[5]	-14.8	-1.78	-0.6	5.56	99.4
[6]	-7.58	1.98	-0.95	5.86	97.7
[7]	-6.89	-5.87	7.32	-4.08	50.9
[8]	9.92	-5.43	4.09	-28.6	-11.5
[9]	0.77	-7.48	-4.93	-16	-3.43
[10]	-0.3	0.71	-1.86	-6.29	37.3
[11]	6.87	18.8	18.7	29.4	98
[12]	-5.22	1.87	-2.46	-4.04	47.7
[13]	-7.3	-2.96	-5.68	2.67	93.2
[14]	-3.8	4.61	-6.45	7.92	92.1
[28]	-2.86	1.34	1.8	12.1	11.6

CNC(=O)c1cc(COc2nnc(Nc3ccc(Cl)cc3)c3ccoc23)ccn1 [Telatinib] (max concentration tested 10000 nM)
Conditions	drug sensitivity score
[1]	0.23
[15]	1.85
[16]	0.8
[17]	0
[18]	7.2
[19]	0.48
[20]	0
[21]	0
[22]	0
[23]	1
[24]	1.33
[25]	0
[26]	0.7
[27]	0.91

percent inhibition of viability [%]
Conditions	1 nM	10 nM	100 nM	1000 nM	10000 nM
[2]	-14.3	7.86	8.96	9.44	25.7
[3]	-4.25	1.6	0.07	3.62	17.2
[4]	-12.1	2.04	1.9	-5.46	-0.21
[5]	4.45	8.77	17.6	24.9	37.5
[6]	-1.29	6.77	10.7	6.73	6.92
[7]	-8.51	7.4	6.24	-6.6	-0.18
[8]	-33.8	-3.86	0.16	-3.05	3.2
[9]	-11.3	3.32	6.19	3.83	4.17
[10]	-7.49	-0.52	-1.32	7.55	16.5
[11]	-6.76	-18.2	-10.9	-17.2	39.8
[12]	-6.03	-1.57	0.93	8.01	8.35
[13]	-3.24	-3.74	3.78	6.85	18
[14]	-1.15	-3.17	-1.98	4.4	17.6
[28]	-1.26	-3.44	0.95	10.9	8.85

CCN1CCN(Cc2ccc(Nc3ncc(F)c(-c4cc(F)c5nc(C)n(C(C)C)c5c4)n3)nc2)CC1 [Abemaciclib] (max concentration tested 2500 nM)
Conditions	drug sensitivity score
[1]	3.89
[15]	3.33
[16]	9.69
[17]	0
[18]	1.33
[19]	4.41
[20]	2.85
[21]	0.89
[22]	2.05
[23]	10.8
[24]	0.14
[25]	0
[26]	8.19
[27]	0.01

percent inhibition of viability [%]
Conditions	0.25 nM	2.5 nM	25 nM	250 nM	2500 nM
[2]	-9.23	0.87	-2.31	7.25	42
[3]	-1.33	-1.51	-0.04	42.8	79.8
[4]	-10.9	-4.53	-8.73	-3.71	11.1
[5]	-11.9	-8.91	-19.3	-11.8	38
[6]	1.3	-5.47	-5.79	-18.8	97.5
[7]	-7.88	-7.14	0.77	1.36	50.7
[8]	-12.7	-5.25	-10.3	-47.3	-83.7
[9]	-4.8	-6.62	-2.33	9.08	24.4
[10]	-4.64	-2.09	8.58	51.3	73.9
[11]	22.8	13.2	4.72	15.4	29.8
[12]	-0.11	3.29	-1.68	5.51	7.94
[13]	-3.7	-3.12	0.09	18	95
[14]	-4.55	-3.34	-6.9	-4.76	11.8
[28]	2.02	-3.3	4.81	17.7	41.3
